Measured values published in patent US4001209A, “Antibiotic G-52 and method for the production thereof” (Schering Corporation, priority 1975, dated 1977).
≈ marks a conversion by molar mass, not a printed value.

Legend:
[1] = tested on: gram-positive and gram-negative microorganisms; assay: Antibacterial activity (general statement); type: cell-based
[2] = tested on: Pseudomonas aeruginosa 130 - GR; assay: Minimum Inhibitory Concentration; type: cell-based; settings: Tryptose phosphate broth at pH 7.2
Text: (§1) Test Medium: Tryptose phosphate broth at pH 7.2.

Escherichia coli 578 = assay: Minimum Inhibitory Concentration; type: cell-based; settings: Tryptose phosphate broth at pH 7.2
Text: as §1

Escherichia coli 11775 = assay: Minimum Inhibitory Concentration; type: cell-based; settings: Tryptose phosphate broth at pH 7.2
Text: as §1

Staphylococcus aureus 45 = assay: Minimum Inhibitory Concentration; type: cell-based; settings: Tryptose phosphate broth at pH 7.2
Text: as §1

Proteus mirabilis 8019 = assay: Minimum Inhibitory Concentration; type: cell-based; settings: Tryptose phosphate broth at pH 7.2
Text: as §1

[3] = tested on: Salmonella paratyphi 13311; assay: Minimum Inhibitory Concentration; type: cell-based; settings: Salmonella enterica, pH 7.2
Text: as §1

Streptococcus pyogenes C = assay: Minimum Inhibitory Concentration; type: cell-based; settings: Tryptose phosphate broth at pH 7.2
Text: as §1

[4] = tested on: Klebsiella pneumoniae Ad 17 - kR; assay: Minimum Inhibitory Concentration; type: cell-based; settings: AD17KR, pH 7.2
Text: as §1

[5] = tested on: Pseudomonas aeruginosa 236 - GR; assay: Minimum Inhibitory Concentration; type: cell-based; settings: Tryptose phosphate broth at pH 7.2
Text: as §1

[6] = tested on: Staphylococcus aureus 209P; assay: Minimum Inhibitory Concentration; type: cell-based; settings: Tryptose phosphate broth at pH 7.2
Text: as §1

[7] = tested on: Staphylococcus aureus Gray; assay: Protective Activity in mice; type: in vivo, Mice (Carworth Farms CF-1); settings: sc, S.C., single dose of antibiotic (sulfate) 1 hour after intraperitoneal infection (10^7 organisms), survivors at 48 hours, read-out: PD50
Method: (§2) a. Mice (Carworth Farms CF-1 weighing about 18 - 20 grams) are treated with a single dose of antibiotic (sulfate) one (1) hour after an intraperitoneal infection with a lethal (10^7 organisms) quantity of the infectious organism. The number of survivors are determined 48 hours after infection and the data analyzed by standard probit procedures to determine the PD50 values with 95% confidence limits.

Pseudomonas aeruginosa = assay: Protective Activity in mice; type: in vivo, Mice (Carworth Farms CF-1); settings: sc, S.C., single dose of antibiotic (sulfate) 1 hour after intraperitoneal infection (10^7 organisms), survivors at 48 hours, read-out: PD50
Method: as §2

Escherichia coli = assay: Protective Activity in mice; type: in vivo, Mice (Carworth Farms CF-1); settings: sc, S.C., single dose of antibiotic (sulfate) 1 hour after intraperitoneal infection (10^7 organisms), survivors at 48 hours, read-out: PD50
Method: as §2

Acute Toxicity = settings: mouse, in vivo, sc
Method: b. The acute toxicity of Antibiotic G-52 in the form of the sulfate salt is determined in the standard manner by administration of the antibiotic to mice (CF-1) intravenously, subcutaneously and intraperitoneally. The results are analyzed by standard probit procedures to determine the LD50 values with 95% confidence limits.

Stability = type: physicochemical
Solubility = type: physicochemical
[8] = tested on: Staphylococcus aureus A.T.C.C. 6538P; assay: standard disc plate microbiological assay

With `CNCC1=CC[C@@H](N)[C@@H](O[C@H]2[C@H](O)[C@@H](O[C@H]3OC[C@](C)(O)[C@H](NC)[C@H]3O)[C@H](N)C[C@@H]2N)O1` [Antibiotic G-52] as the compound, how does the “effect on growth of gram-positive and gram-negative microorganisms” value [1] read?
Its value is “adversely affect the growth”.

And the MIC [2]?
The MIC was 25 µg/mL (≈ 54.2 µM).

What about the MIC (Escherichia coli 578) of the same compound?
The MIC was 7.5 µg/mL (≈ 16.2 µM).

And the MIC (Escherichia coli 11775)?
The MIC was 3 µg/mL (≈ 6.5 µM).

What about the MIC (Staphylococcus aureus 45) of the same compound?
The MIC was 0.8 µg/mL (≈ 1.73 µM).

And the MIC (Proteus mirabilis 8019)?
The MIC was 7.5 µg/mL (≈ 16.2 µM).

What about the MIC [3] of the same compound?
The MIC was 17.5 µg/mL (≈ 37.9 µM).

And the MIC (Streptococcus pyogenes C)?
The MIC was 25 µg/mL (≈ 54.2 µM).

And the MIC [4]?
The MIC was 0.8 µg/mL (≈ 1.73 µM).

What about the MIC [5] of the same compound?
The MIC was 25 µg/mL (≈ 54.2 µM).

What about the MIC [6] of the same compound?
Its MIC is 0.3 µg/mL (≈ 0.65 µM).

And the ED50 [7]?
The ED50 was 2.5 mg/kg.

And the ED50 (Pseudomonas aeruginosa)?
Its ED50 is 1.5 mg/kg.

What about the ED50 (Escherichia coli) of the same compound?
The ED50 was 2.5 mg/kg.

And the LD50 (Acute Toxicity)?
The LD50 was 400 mg/kg.

And the stable to boiling (Stability; MacIlvaines buffer from pH 2-8)?
The stable to boiling was ≥ 30 min.

And the stable to boiling (Stability; sodium hydroxide-boric acid buffer from pH 8-10)?
Its stable to boiling is ≥ 30 min.

What about the “solubility in organic solvents” value (Solubility; most polar organic solvents such as lower alcohols, dimethylformamide, dimethylsulfoxide, pyridine) of the same compound?
The value was “some degree of solubility”.

What about the solubility in water (Solubility; water) of the same compound?
The solubility in water was “very soluble”.

What about the zone of inhibition at 1 µg/disc ([8]; Staphylococcus aureus) of the same compound?
The zone of inhibition at 1 µg/disc was 17.7 ± 1 mm.

And the “potency (assay)” value ([8]; against standard antibiotic base (defined potency 1000 mcg/mg))?
The value was “about 1000 mcg/mg”.
